Experimental findings from patent US3995033A, “Secondary phosphoric acid esters, composition and method of use” (priority 1971, dated 1976) are described below.

SMILES strings stand for the structures. Structures can show the parent of a compound that is named as a salt.

Assay [1] has as its system ovarian lactic acid production produced by PGE1. Nature of the assay: Prostaglandin-stimulated glycolysis of the prepubertal ovary in vitro. In kind it is cell-based, prepubertal rats. The procedure:
The action of esters of the present invention on the prostaglandin-stimulated glycolysis of the prepubertal ovary is investigated. The method used has been described in detail by Perklev & Ahren (Life Sciences Part I, 10:1387, 1971). In these experiments ovaries from prepubertal rats are removed and placed in Erlenmeyer flasks containing compounds of this invention dissolved in Krebs bicarbonate buffer. After that the ovaries have been preincubated during 60 min. at 37° C in this medium, they are blotted on filter paper and then washed for 2 min. in plain buffer. The ovaries are then transferred to a new incubation medium containing prostaglandins (PG) dissolved in Krebs bicarbonate buffer and incubated at 37° C for 2 hours with continuous shaking. The ovarian glycolysis is then determined by measuring the concentration of lactic acid in the incubation medium. When polyphloretin phosphate (PPP) is present in the preincubation medium in a concentration of 500 μg/ml, the subsequent ovarian lactic acid production produced by PGE1 is reduced to about 50 % of that obtained with ovaries preincubated in plain buffer.

The subject of assay [2] is PGE1-stimulated ovarian glycolysis. Nature of the assay: In vivo action on prostaglandin-stimulated glycolysis of the prepubertal ovary (i.p. injection, ovaries then incubated with PGE1). More on the design: species or system Prepubertal rats of the Sprague-Dawley strain. The conditions noted are these: injected i.p. (500 μg in 1 ml saline) one hour before removal of ovaries; PGE1 0.4 μg/ml, 2 hours. The procedure:
Prepubertal rats, 24-26 days old, of the Sprague-Dawley strain, are injected intraperitoneally (i.p.) with 1 ml saline containing 500 μg sodium 3,5-dimethylphenyl 4-(3-(2,4,6-trihydroxyphenyl)-3-oxo-propyl)phenyl phosphate.
One hour later the animals are sacrified by cervical fracture and the ovaries are removed and trimmed free of extraneous tissue. The ovaries are then transferred to an incubation bath containing prostaglandin E1 (PGE1; 0.4 μg/ml) dissolved in Krebs bicarbonate buffer and incubated at 37° C for 2 hours with continuous shaking. The ovarian glyclysis is then determined by measuring the concentration of lactic acid in the incubation medium. The details of the method have been described previously (Perkley, T. & Ahren, K., Life Sciences Part I, 10:1387, 1971).

Assay [3] relates to gerbil colon (ascending colon) in vivo. Nature of the assay: Smooth muscle stimulatory effect on the gerbil colon in vivo. The arrangement: species or system mongolian gerbils. The procedure:
The experiments are performed with mongolian gerbils, anesthetized with pentobarbital, 50 mg/kg. The ascending colon is exposed and carefully stretched between silk thread loops and a strain-gauge transducer.
After a stable base-line has been established an eter of this invention, sodium 3,5-dimethylphenyl 4-(3-(2,4,6-trihydroxyphenyl)-3-oxopropyl)phenylphosphate (Leo 1258) is infused i.v.

The test system of assay [4] is gerbil colon, contractions produced by prostaglandins E1, E2, F1α and F2α. Briefly: PG-inhibitory effect on the isolated gerbil colon. More on the design: species or system Gerbils (Meriones unguiculatus). How it is done:
The PG-inhibitory effect of esters of the present invention on the gerbil colon are determined using the general technique described by Eakins, Miller & Karim (J. Pharm. Exp. Ther. 176:441, 1971). Gerbils (Meriones unguiculatus) of own breed, both sexes, weighing 50-80 g are used. The animal is stunned, colon ascendens immediately removed, and a 2-3 cm piece mounted in a 6 ml bath containing a modified de Jalon solution at 28° C and continuously oxygenated. Contractions of the organ are registered either isotonicaly or isometrically. When testing the inhibitory effect of a compound this is added to the bath 2 min. before the addition of prostaglandin. The antagonist (esters of this invention) is usually dissolved in saline, but occasionally an organic solvent such as ethanol has to be included. Several concentrations of each antagonist are used. In this system prostaglandins E1, E2, F1α and F2α produce suitable contractions of the organ in the concentration range 1-50 ng/ml.
Results from these experiments give an approximation of the PG-inhibitory potency of the compounds. When more precise information about this is desired we use a more elaborate method involving the establishment of several […] dose-response curves in the presence of various concentrations of inhibitor. The method used is essentially the same as that described by Arunlakshana & Schild (Br. J. Pharm. 14:48, 1959). […]

The test system of assay [5] is bronchial smooth muscle, isolated perfused guinea-pig lung. Briefly: Effect on bronchial smooth muscle, isolated perfused guinea-pig lung. The text has this: The effects of esters of the present invention on bronchial smooth muscle have been investigated using an isolated perfused guinea-pig lung preparation according to Thattacharya & Delaunois (Arch. Int. Pharmacodyn. 101:495, 1955). The lungs from guinea-pigs weighing 300-400 g are removed, and the trachea and A. pulmonalis cannulated. The arterial cannula is connected to a perfusion fluid reservoir containing Tyrode solution buffered with 10 % Sorensen phosphate buffer. The tracheal cannula is connected with tubing to a carbogen gas supply delivering a constant amount per time unit. The perfusion pressure is measured in a side arm of the tubing with a "Mercury" transducer connected to an Ultralette UV-recorder. The compounds are injected via the arterial cannula, close to the entrance of A. pulmonalis in the lung.

Assay [6] deals with PGE2-stimulated corticosterone production by adrenals. Nature of the assay: Prostaglandin-stimulated corticosterone production by rat adrenals in vitro. The conditions noted are these: for Corticosterone production: mean ± standard error. In kind it is cell-based, Sprague-Dawley male rats. The procedure:
The inhibitory effect of esters of the present invention has been investigated on the prostaglandin-stimulated corticosterone production by adrenals from male rats in vitro. The experiments were performed using adult Sprague-Dawley male rats weighing 200-250 g, which were housed 1 per cage under conditions of controlled lighting and temperature. Animal quarters were not entered during the 18 hours preceding the experiment. The animals were sacrified by decapitation at 10 AM under conditions chosen to minimize disturbance of the animals. The adrenals were decapsulated and quartered and 8 adrenal quarters from different animals were distributed to 10 ml Erlenmeyer flasks containing 0.5 ml 0.9 % saline and 2.0 ml Krebs-Ringer bicarbonate buffer, pH 7.4. The weight of the adrenal tissue in each flask was determined. The flasks were gassed with 95 % O 2 -- 5 CO2 and preincubated at 37° C for 1 hour with continuous shaking. Following preincubation the media were decanted and discarded. One ml of Krebs-Ringer buffer, with or without the additions of prostaglandin E2 (PGE2) sodium 3,5-dimethylphenyl 4-(3-(2,4,6-trihydroxyphenyl)-3-oxopropyl)phenyl phosphate.
(for details see below) was added to the flasks, which were then gassed with 95 % 02 -- 5 % CO2 and kept at 37° C for 1 hour with continuous shaking. Following incubation, corticosterone levels were determined on 0.5 ml aliquots of the medium by the sulphuric acid fluorescence method.
In the first experiment (I) PGE2 in a concentration of 1 μg/ml was added to the incubation medium containing the quartered adrenals.
In the next experiment (II) different amounts of Leo 1258 to the incubation medium.

The test system of assay [7] is anaphylactic bronchoconstriction elicited by antigen (egg albumin), isolated perfused guinea-pig lung. Nature of the assay: Anaphylactic bronchoconstriction in the isolated perfused lung of sensitized guinea-pigs. The text has this:
The effects of esters of the present invention on the anaphylactic reaction in guinea-pigs have been investigated using the isolated perfused guinea-pig lung preparation as described by Bhattacharya & Delaunois (Arch. Int. Pharmacodyn. 101:495, 1955). Guinea-pigs weighing about 300 g are sensitized with egg albumin according to Fredholm & Strandberg (1969). After the appropriate sensitization period the lungs are removed and mounted in a moist, thermostated chamber. The trachea and A. pulmonalis are cannulated. The arterial cannula is connected to a perfusion fluid reservoir containing Tyrode solution buffered with 10 % Sorensen phosphate buffer. The tracheal cannula is connected with tubing to a carbogen gas supply delivering a constant amount per time unit. The perfusion pressure is measured in a side arm of the tubing with a "Mercury" transducer connected to an Ultralette UV-recorder. When antigen (egg albumin), 0.1 - 1.0 μg, is injected via the arterial cannula, a broncho-constriction, indicated by an increase in the perfusion pressure, is elicited.

For assay [8], the system named is Slow Reacting Substance (SRS) contractions of isolated guinea-pig ileum. Nature of the assay: Antagonism to Slow Reacting Substance on the isolated guinea-pig ileum. How it is done: The antagonism to Slow Reacting Substance (SRS) is determined on the isolated guinea-pig ileum as described by Mathe & Standberg (Acta physiol. scand. 82:460, 1971). Purified SRS is obtained from cat paws perfused with compound 48/80 (Strandberg & Uvnas: Acta physiol. scand. 82.358, 1971). Sodium 4-(3-oxo-3-(2,4,6-trihydroxyphenyl)propyl)phenyl phenyl phosphate was tested in this system in several concentrations.

The subject of assay [9] is contractions produced by histamine and bradykinin, isolated guinea-pig ileum. Briefly: Selectivity on the isolated guinea-pig ileum: histamine and bradykinin. The conditions noted are these: concentrations as low as 5 μg/ml.

With `Cc1cc(C)cc(OP(=O)(O)Oc2ccc(CCC(=O)c3c(O)cc(O)cc3O)cc2)c1` [Leo 1258, sodium 3,5-dimethylphenyl 4-(3-(2,4,6-trihydroxyphenyl)-3-oxopropyl)phenylphosphate], the “activity as a prostaglandin inhibitor relative to PPP” value in assay [1] is on record as 5-10 times. For the same molecule, the IC50 in assay [1] (Rattus norvegicus, 60 min. preincubation, then 2 hours with PG, read-out: concentration in the preincubation medium giving about 50 % reduction of the lactic acid production produced by PGE1) was 50 to 100 µg/mL. In [2], the “ovarian glycolysis (lactic acid) compared with saline-injected animals” value is listed as “significantly reduced”. Besides, in assay [3] (1 mg/ml in the buffer solution superfusing the gut), the “reaction of the gut” value is recorded as “increase in tone”. The minimal effective dose in assay [3] (Meriones unguiculatus, iv, infused i.v., anesthetized gerbils, read-out: dose that causes the gut to respond with a series of contractions) was no less than 40 mg/kg. Moreover, the “concentration for 50 per cent reduction of the PG-induced contraction, as fraction of that of PPP” value in [4] (relative to PPP) was “about one tenth”. Moreover, in assay [5] (injected via the arterial cannula), the “dose showing a broncho-constricting effect” value is on record as no less than 0.5 mg. The “effect on the PGE2-stimulated corticosterone production” value in assay [6] (0.25 and 1.0 mg added to the incubation bath) is given as “dose-related inhibition”. Also, the Corticosterone production in assay [6] (Exp. II group A, Leo 1258 250 μg/ml without PGE2) was 3.9±0.5 μg/100 mgx 1 h; in assay [6] (Exp. II group C, PGE2 1 μg/ml + Leo 1258 250 μg/ml), 6.5±0.5 μg/100 mgx 1 h; in assay [6] (Exp. II group D, PGE2 1 μg/ml + Leo 1258 1 mg/ml) it was 2.9±0.2 μg/100 mgx 1 h. In addition, the “effect on the anaphylactic bronchoconstriction” value in assay [7] (4-20 μg/ml incorporated in the Tyrode solution) is “abolished or markedly reduced”.
On to `CCCCC[C@H](O)/C=C/[C@H]1[C@H](O)CC(=O)[C@@H]1C/C=C\CCCC(=O)O` [PGE2, prostaglandin E2, reference compound], for which the Corticosterone production in assay [6] (Exp. I, PGE2 1 μg/ml alone, 4 observ.) is reported as 7.6±0.4 μg/100 mgx 1 h; in [6] (Exp. II group B, PGE2 1 μg/ml alone), 8.4±0.5 μg/100 mgx 1 h. Moreover, the “effect on the corticosterone concentration” value in [6] (PGE2 1 μg/ml, Exp. I) was “highly significant increase”.
On to `O=C(CCc1ccc(OP(=O)([O-])Oc2ccccc2)cc1)c1c(O)cc(O)cc1O.[Na+]` [sodium 4-(3-oxo-3-(2,4,6-trihydroxyphenyl)propyl)-phenyl phenyl phosphate], for which the “concentration that inhibits contractions produced by SRS” value in assay [8] (concentrations as low as) amounted to 5 µg/mL. The “manner of the inhibition of SRS contractions” value in assay [8] (parallel shift of the dose-response curves, no change in maximum contraction) is recorded as “competitive”. Besides, the “inhibition of contractions produced by histamine and bradykinin” value in assay [9] is “not by histamine and bradykinin”.
In the case of `O=P(O)(Oc1ccccc1)Oc1ccccc1` [sodium salt of diphenyl phosphate, reference compound], the “effect on the gut” value in assay [3] (i.v., doses up to 400 mg/kg) is “no effect at all”. The “PG-inhibitory effect on the gerbil colon” value in assay [4] (concentrations 10 times as high as that of PPP) is on record as “without effect”. The broncho-constricting effect result in [5] (dose of 12.8 mg) was “completely lacked such an effect”. Further, the “antagonism to SRS” value in assay [8] is given as “without effect”. Also, in assay [7] (concentration 100 μg/ml), the “effect on the anaphylactic bronchoconstriction” value is on record as “completely lacked such an effect”.
